Laboratory results taken from patent US10744134B2, “Pharmaceutical composition for cancer immunotherapy and/or immunological activation containing diamino heterocyclic carboxamide compound as active ingredient” (Astellas Pharma Inc., priority 2015, dated 2020).

Columns and labels:
[1] = test system: colon carcinoma cell line MC38; assay: Anti-tumor evaluation (in vivo) in colon carcinoma cell line MC38 cancer-bearing model (Example 1); set-up: species or system C57BL/6J mice; conditions: hemifumarate of compound A, oral, vs control group, FIG. 1
Experimental: Evaluation of Anti-Tumor (In Vivo) of Compound a with Respect to Colon Carcinoma Cell Line MC38 Cancer-Bearing Model
The colon cancer cell line MC38 cells (National Cancer Institute) were cultured in Dulbecco's modified Eagle's minimum essential medium (DMEM) supplemented with 10% Fetal Bovine Serum (FBS). MC38 subcutaneous cancer-bearing mice were subsequently prepared by subcutaneously transplanting MC38 cells on the back of C57BL/6J mice (female, Charles river, Japan). After confirming the engraftment of the tumor, the change in the tumor volume of each of the group (COMPOUND A 30 mg/kg bid) in which hemifumarate of the compound A, which is a test compound, dissolved in 0.5% of methyl cellulose is orally administered at a dose of 30 mg/kg (in terms of free form) twice a day for 17 days, the group (COMPOUND A 60 mg/kg qd) in which hemifumarate of the compound A is orally administered at a dose of 60 mg/kg (in terms of free form) once a day for 17 days, and the control group in which the compound A is not administered, was measured at a frequency of twice a week.

CD4+ and CD8+ T cells = assay: Immune activation: flow cytometry of CD4+ and CD8+ T cells in spleen and tumor of MC38 cancer-bearing mice (Example 2); assay type: in vivo, C57BL/6J mouse; conditions: 100 mg/kg qd oral for seven days
Experimental: (§1) Evaluation of Immune Activation of Compound a with Respect to Colon Carcinoma Cell Line MC38 Cancer-Bearing Model
(§2) MC38 subcutaneous cancer-bearing mice were prepared by subcutaneously transplanting MC38 cells on the back of C57BL/6J mouse (female, Charles river, Japan). After confirming the engraftment of the tumor, hemifumarate of the compound A, which is the test compound, was orally administered to seven mice at a dose of 100 mg/kg (in terms of free form) once a day for seven days. As a control, 0.5% of methylcellulose was also orally administered to seven mice at the same dose of 100 mg/kg once a day for seven days, which was the same administration as the group administered at a 100 mg/kg. After measuring the tumor volume change on the 4th and 7th days, spleens and tumors were collected from a total of six mice of three examples (control-1, control-2, and control-3) extracted from the control group and three examples extracted from the compound A administered groups (COMPOUND A 100 mg/kg qd-1, COMPOUND A 100 mg/kg qd-2, and COMPOUND A 100 mg/kg qd-3). Then, staining was performed with anti CD3 antibody (eBioscience), anti CD4 antibody (Biolegend), anti CD8 antibody (eBioscienec), anti CD45 antibody (Biolegend), and the number of positive cells of each antigen was measured using a flow cytometer (BD FACS Verse).

[2] = test system: colon carcinoma cell line MC38; assay: Tumor volume change in MC38 subcutaneous cancer-bearing mice (Example 2); assay type: in vivo, C57BL/6J mouse; conditions: hemifumarate, oral, 100 mg/kg (free form) once a day for seven days; individuals qd-2 and qd-3; measured on 4th and 7th days; FIG. 2
Experimental: as §1, §2

malignant melanoma = conditions: first-line, malignant melanoma patients; cited from earlier work

| Molecule | tumor volume ([1]; 30 mg/kg (free form) twice a day for 17 days) | tumor volume ([1]; 60 mg/kg (free form) once a day for 17 days) | proportion of the number of CD8+ cells in CD45+ and CD3+ cells in a tumor (CD4+ and CD8+ T cells; individuals qd-2 and qd-3 in which tumor growth was suppressed, FIG. 5) | proportion of the number of CD4+ cells in CD45+ and CD3+ cells in spleen (CD4+ and CD8+ T cells; three mice vs three controls, FIG. 3) | proportion of the number of CD8+ cells in CD45+ and CD3+ cells in spleen (CD4+ and CD8+ T cells; three mice vs three controls, FIG. 4) | tumor volume [2] | overall survival extended, share of the nivolumab group (malignant melanoma) [%] |
| --- | --- | --- | --- | --- | --- | --- | --- |
| CCc1nc(C(N)=O)c(Nc2ccc(N3CCC(N4CCN(C)CC4)CC3)c(OC)c2)nc1NC1CCOCC1 [compound A, 6-ethyl-3-({3-methoxy-4-[4-(4-methylpiperazin-1-yl)piperidin-1-yl]phenyl}amino)-5-(tetrahydro-2H-pyran-4-ylamino)pyrazine-2-carboxamide] | strong effect of suppressing the increase in the tumor volume | strong effect of suppressing the increase in the tumor volume | the increase of the number of CD8+ cells was observed | the increase in the number of CD4+ cells and CD8+ cells in spleen was observed | the increase in the number of CD4+ cells and CD8+ cells in spleen was observed | the increase in the tumor volume was hardly observed |  |
| nivolumab: anti-PD-1 antibody marketed as a therapeutic agent for malignant melanoma and non-small cell lung cancer |  |  |  |  |  |  | 72.9 |
